Assay results taken from US7767659B2, “Synthesis of naturally occurring ecteinascidins and related compounds” (Pharma Mar, S.A., priority 2002, dated 2010).

Legend:
[1] = test system: A-549; assay: cells; details: Homo sapiens, A549, 48 h; for GI50: read-out: A549 GI50; for CC50: read-out: A549 LC50; for IC (TGI): read-out: A549 TGI
Protocol: (§1) This form of the assay employs 96 well cell culture microplates of 9 mm diameter (Faircloth, 1988; Mosmann, 1983). Most of the cell lines are obtained from American Type Culture Collection (ATCC) derived from different human cancer types.
(§2) Cells are maintained in RPMI 1640 10% FBS, supplemented with 0.1 g/l penicillin and 0.1 g/l streptomycin sulfate and then incubated at 37° C., 5% CO2 and 98% humidity. For the experiments, cells were harvested from subconfluent cultures using trypsin and resuspended in fresh medium before plating.
(§3) Cells are seeded in 96 well microtiter plates, at 5×10^3 cells per well in aliquots of 195 μl medium, and they are allowed to attach to the plate surface by growing in drug free medium for 18 hours. Afterward, samples are added in aliquots of 5 μl in a ranging from 10 to 10^−8 μg/ml, dissolved in DMSO/EtOH/PBS (0.5:0.5:99). After 48 hours exposure, the antitumor effect are measured by the SRB methodology: cells are fixed by adding 50 μl of cold 50% (wt/vol) trichloroacetic acid (TCA) and incubating for 60 minutes at 4° C. Plates are washed with deionized water and dried. One hundred μl of SRB solution (0.4% wt/vol in 1% acetic acid) is added to each microtiter well and incubated for 10 minutes at room temperature. Unbound SRB is removed by washing with 1% acetic acid. Plates are air dried and bound stain is solubilzed with Tris buffer. Optical densities are read on a automated spectrophotometric plate reader at a single wavelength of 490 nm.
(§4) The values for mean +/− SD of data from triplicate wells are calculated. Some parameters for cellular responses can be calculated: GI=growth inhibition, TGI=total growth inhibition (cytostatic effect) and LC=cell killing (cytotoxic effect).

[2] = test system: HT-29; assay: cells; details: Homo sapiens, HT-29, 48 h; for GI50: read-out: HT29 GI50; for CC50: read-out: HT29 LC50; for IC (TGI): read-out: HT29 TGI
Protocol: as §1, §2, §3, §4

[3] = test system: LoVo; assay: cells; details: Homo sapiens, LoVo, 48 h; for GI50: read-out: LOVO GI50; for CC50: read-out: LOVO LC50; for IC (TGI): read-out: LOVO TGI
Protocol: as §1, §2, §3, §4

[4] = test system: DU-145; assay: Inhibition of cells growth by colorimetric assay (SRB); details: Homo sapiens, DU-145, 48 h; for GI50: read-out: DU145 GI50; for CC50: read-out: DU145 LC50; for IC (TGI): read-out: DU145 TGI
Protocol: as §1, §2, §3, §4

[5] = test system: HeLa-APL; assay: as above; details: Homo sapiens, 48 h; for GI50: read-out: HELA-APL GI50; for CC50: read-out: HELA-APL LC50; for IC (TGI): read-out: HELA-APL TGI
Protocol: as §1, §2, §3, §4

[6] = test system: HeLa; assay: as above; details: Homo sapiens, HeLa, 48 h; for GI50: read-out: HELA GI50; for CC50: read-out: HELA LC50; for IC (TGI): read-out: HELA TGI
Protocol: as §1, §2, §3, §4

[7] = test system: IGROV-1; assay: as above; details: Homo sapiens, IGROV-1, 48 h; for GI50: read-out: IGROV GI50; for CC50: read-out: IGROV LC50; for IC (TGI): read-out: IGROV TGI
Protocol: as §1, §2, §3, §4

[8] = test system: IGROV-ET; assay: as above; details: Homo sapiens, 48 h; for GI50: read-out: IGROV-ET GI50; for CC50: read-out: IGROV-ET LC50; for IC (TGI): read-out: IGROV-ET TGI
Protocol: as §1, §2, §3, §4

[9] = test system: K-562; assay: as above; details: Homo sapiens, K562, 48 h; for GI50: read-out: K562 GI50; for CC50: read-out: K562 LC50; for IC (TGI): read-out: K562 TGI
Protocol: as §1, §2, §3, §4

[10] = test system: LNCaP; assay: as above; details: Homo sapiens, LNCaP, 48 h; for GI50: read-out: LNCAP GI50; for CC50: read-out: LNCAP LC50; for IC (TGI): read-out: LNCAP TGI
Protocol: as §1, §2, §3, §4

[11] = test system: LoVo-Dox; assay: as above; details: Homo sapiens, 48 h; for GI50: read-out: LOVO-DOX GI50; for CC50: read-out: LOVO-DOX LC50; for IC (TGI): read-out: LOVO-DOX TGI
Protocol: as §1, §2, §3, §4

[12] = test system: PANC-1; assay: as above; details: Homo sapiens, PANC-1, 48 h; for GI50: read-out: PANC-1 GI50; for CC50: read-out: PANC-1 LC50; for IC (TGI): read-out: PANC-1 TGI
Protocol: as §1, §2, §3, §4

[13] = test system: SK-MEL-28; assay: as above; details: Homo sapiens, SK-MEL-28, 48 h; for GI50: read-out: MEL-28 GI50; for CC50: read-out: MEL-28 LC50; for IC (TGI): read-out: MEL-28 TGI
Protocol: as §1, §2, §3, §4

Compound `C=CCN1[C@@H]2c3c(cc(C)c(OC)c3O)C[C@H]1[C@H](C#N)N1C2[C@@H]2SC[C@]3(NCCc4c3[nH]c3ccccc43)C(=O)OC[C@H]1c1c3c(c(C)c(OC(C)=O)c12)OCO3` (stereo partly drawn) [compound 55] has a GI50 [1] of 68.4 nM, a CC50 [1] of 1220 nM and an IC (TGI) [1] of 286 nM. The GI50 [2] was 75.7 nM, the CC50 [2] was 12700 nM and the IC (TGI) [2] was 1810 nM. For the same compound, the GI50 [3] was 151 nM, the CC50 [3] was 837 nM and the IC (TGI) [3] was 356 nM. For the same compound, the GI50 [4] was 59 nM, the CC50 [4] was 12700 nM and the IC (TGI) [4] was 247 nM. The GI50 [5] was 111 nM, the CC50 [5] was 915 nM and the IC (TGI) [5] was 323 nM. It also gave a GI50 [6] of 148 nM, a CC50 [6] of 887 nM and an IC (TGI) [6] of 363 nM. For the same compound, the GI50 [7] was 69.2 nM, the CC50 [7] was 1580 nM and the IC (TGI) [7] was 271 nM. It also gave a GI50 [8] of 248 nM, a CC50 [8] of 4180 nM and an IC (TGI) [8] of 624 nM. The GI50 [9] was 58.4 nM, the CC50 [9] was 1040 nM and the IC (TGI) [9] was 272 nM. It also gave a GI50 [10] of 17.1 nM, a CC50 [10] of 75.7 nM and an IC (TGI) [10] of 36 nM. The GI50 [11] was 333 nM, the CC50 [11] was 12700 nM and the IC (TGI) [11] was 1570 nM. For the same compound, the GI50 [12] was 148 nM, the CC50 [12] was 12700 nM and the IC (TGI) [12] was 1900 nM. The GI50 [13] was 88.6 nM, the CC50 [13] was 698 nM and the IC (TGI) [13] was 265 nM.
In the case of `COc1c(C)cc2c(c1O)[C@H]1N[C@@H](C2)[C@H](C#N)N2C1[C@@H]1SCC(=O)C(=O)OC[C@H]2c2c3c(c(C)c(OC(C)=O)c21)OCO3` (stereo partly drawn) [compound 42], the GI50 [1] is reported as 57.4 nM, the CC50 [1] is reported as 2370 nM and the IC (TGI) [1] is reported as 147 nM. The GI50 [2] was 39.7 nM, the CC50 [2] was 16500 nM and the IC (TGI) [2] was 131 nM. For the same compound, the GI50 [3] was 37.7 nM, the CC50 [3] was 2930 nM and the IC (TGI) [3] was 72.6 nM. The GI50 [4] was 37.4 nM, the CC50 [4] was 247 nM and the IC (TGI) [4] was 82.5 nM. It also gave a GI50 [5] of 34.6 nM, a CC50 [5] of 130 nM and an IC (TGI) [5] of 67 nM. For the same compound, the GI50 [6] was 28.1 nM, the CC50 [6] was 139 nM and the IC (TGI) [6] was 62.5 nM. For the same compound, the GI50 [7] was 28.6 nM, the CC50 [7] was 153 nM and the IC (TGI) [7] was 66.3 nM. The GI50 [8] was 280 nM, the CC50 [8] was 16500 nM and the IC (TGI) [8] was 1020 nM. It also gave a GI50 [9] of 17.8 nM, a CC50 [9] of 694 nM and an IC (TGI) [9] of 59.6 nM. For the same compound, the GI50 [10] was 5.96 nM, the CC50 [10] was 63.7 nM and the IC (TGI) [10] was 22.4 nM. For the same compound, the GI50 [11] was 515 nM, the CC50 [11] was 16500 nM and the IC (TGI) [11] was 1440 nM. For the same compound, the GI50 [12] was 39 nM, the CC50 [12] was 5270 nM and the IC (TGI) [12] was 11.5 nM. For the same compound, the GI50 [13] was 30.1 nM, the CC50 [13] was 107 nM and the IC (TGI) [13] was 56.8 nM.
Compound `COc1c(C)cc2c(c1O)[C@H]1N[C@@H](C2)[C@H](C#N)N2C1[C@@H]1SC[C@]3(NCCc4c3[nH]c3ccccc43)C(=O)OC[C@H]2c2c3c(c(C)c(OC(C)=O)c21)OCO3` (stereo partly drawn) [compound 59] has a GI50 [1] of 15.9 nM, a CC50 [1] of 273 nM and an IC (TGI) [1] of 48.5 nM. For the same compound, the GI50 [2] was 3.83 nM, the CC50 [2] was 4280 nM and the IC (TGI) [2] was 16 nM. The GI50 [3] was 5.8 nM, the CC50 [3] was 1190 nM and the IC (TGI) [3] was 23.3 nM. For the same compound, the GI50 [4] was 4.09 nM, the CC50 [4] was 1640 nM and the IC (TGI) [4] was 10.2 nM. It also gave a GI50 [5] of 3.32 nM, a CC50 [5] of 59.2 nM and an IC (TGI) [5] of 7.69 nM. It also gave a GI50 [6] of 2.44 nM, a CC50 [6] of 10.6 nM and an IC (TGI) [6] of 5.08 nM. The GI50 [7] was 3.01 nM, the CC50 [7] was 110 nM and the IC (TGI) [7] was 7.33 nM. The GI50 [8] was 4.48 nM, the CC50 [8] was 3040 nM and the IC (TGI) [8] was 107 nM. It also gave a GI50 [9] of 1.8 nM, a CC50 [9] of 3290 nM and an IC (TGI) [9] of 9.83 nM. For the same compound, the GI50 [10] was 1.03 nM, the CC50 [10] was 6.43 nM and the IC (TGI) [10] was 2.67 nM. It also gave a GI50 [11] of 123 nM, a CC50 [11] of 3930 nM and an IC (TGI) [11] of 709 nM. For the same compound, the GI50 [12] was 4.76 nM, the CC50 [12] was 3750 nM and the IC (TGI) [12] was 42.3 nM. It also gave a GI50 [13] of 3.56 nM, a CC50 [13] of 3040 nM and an IC (TGI) [13] of 11 nM.
